From US5602106A, “16-membered macrolide derivatives” (priority 1993, dated 1997) come the findings set out here.

In brackets after ≈: the same amount, converted by molar mass. Read-outs that look alike come from different tables or passages of the source.

Common to all, as to format: cell-based
Test [1] relates to S. aureus 209P JC-1. Kind of test: MIC, agar plate dilution method. The following applies: 37° C., 20 hours, SDA with 5% horse blood; for MIC: Staphylococcus aureus, 209P, 20 h, read-out: Antimicrobial activity (MIC). Here is the method: (§1) The effect of the first aspect of the present invention resides in the creation of a novel and useful 16-membered macrolide derivative. Antimicrobial activities of the compounds of the present invention were determined by measuring minimum inhibitory concentration (MIC). Minimum inhibitory concentration was determined by the agar plate dilution method in the following manner.
(§2) Test strains were subjected to seed culture using Sensitivity test broth (STB, Nissui Pharmaceutical) except that the strains belonging to the genus Streptococcus, Branhamella and Haemophilus were cultured on blood agar plate. A 5 μl portion of cell suspension of the test strains having about 10^6 CFU/ml was inoculated into Sensitivity disk agar (SDA, Nissui Pharmaceutical) supplemented with 5% horse blood and incubated at 37° C. for 20 hours. Then, MIC was measured. […] Antimicrobial activities in vitro of the compounds (1) and (2) are shown in Table 1, and those of the compounds (3) and (4) in Table 3.

In test [2] the test system is H. influenzae Type b. Kind of test: MIC, agar plate dilution method. As to conditions: Haemophilus influenzae. Here is the method: as §1, §2
Test [3] deals with S. aureus M133. As to the kind of experiment: MIC, agar plate dilution method. The following applies: Staphylococcus aureus, M133, 20 h, read-out: Antimicrobial activity (MIC), 37° C., 20 hours, SDA with 5% horse blood. Here is the method: as §1, §2
Test [4] concerns S. aureus M126. Kind of test: MIC, agar plate dilution method. The following applies: Staphylococcus aureus, 37° C., 20 hours, SDA with 5% horse blood, read-out: Antimicrobial activity (MIC). As for the experimental part:
as §1, §2

In test [5] the test system is S. pyogenes Cook. Kind of test: MIC, agar plate dilution method. As to conditions: Streptococcus pyogenes; 37° C., 20 hours, SDA with 5% horse blood; read-out: Antimicrobial activity (MIC). As for the experimental part: as §1, §2
The test system of test [6] is S. aureus MS15009/pMS99. As to the kind of experiment: MIC, agar plate dilution method. The following applies: Staphylococcus aureus, MS15009/PMS99, 20 h, read-out: Antimicrobial activity (MIC). As for the experimental part:
as §1, §2

The test system of test [7] is E. faecalis W-73. As to the kind of experiment: MIC, agar plate dilution method. As to conditions: Enterococcus faecalis, W73, 20 h, read-out: Antimicrobial activity (MIC). As for the experimental part: as §1, §2
The subject of test [8] is S. pneumoniae Type 1. As to the kind of experiment: MIC, agar plate dilution method. As to conditions: Streptococcus pneumoniae, TYPE1; 37° C., 20 hours, SDA with 5% horse blood; read-out: Antimicrobial activity (MIC). As for the experimental part: as §1, §2
In test [9] the test system is B. catarrhalis W-0400. Kind of test: MIC, agar plate dilution method. The following applies: Moraxella catarrhalis, W0400, 20 h, read-out: Antimicrobial activity (MIC). As for the experimental part: as §1, §2
In test [10] the test system is K. pneumoniae PCI602. As to the kind of experiment: MIC, agar plate dilution method. The following applies: 37° C., SDA with 5% horse blood; for MIC: Klebsiella pneumoniae, PCI602, 20 h, read-out: Antimicrobial activity (MIC). As for the experimental part:
as §1, §2

Test [11] concerns E. coli NIHJ JC-2. As to the kind of experiment: MIC, agar plate dilution method. The following applies: 37° C., SDA with 5% horse blood; for MIC: Escherichia coli, NIHJJC2, 20 h, read-out: Antimicrobial activity (MIC). As for the experimental part:
as §1, §2

The test system of test [12] is B. catarrhalis W-0506. As to the kind of experiment: MIC, agar plate dilution method. As to conditions: for MIC: Moraxella catarrhalis, W0506, 20 h, read-out: Antimicrobial activity (MIC), 37° C., 20 hours, SDA with 5% horse blood. As for the experimental part:
as §1, §2

For test [13], the system named is H. influenzae 9334. As to the kind of experiment: MIC, agar plate dilution method. As for the experimental part: as §1, §2
In test [14] the test system is M. luteus ATCC9341. Kind of test: MIC, agar plate dilution method. As to conditions: Micrococcus luteus, ATCC9341; 37° C., 20 hours, SDA with 5% horse blood; read-out: Antimicrobial activity (MIC). As for the experimental part:
as §1, §2

The subject of test [15] is S. pneumoniae IP692. As to the kind of experiment: MIC, agar plate dilution method. The following applies: Streptococcus pneumoniae, IP692, 20 h, 37° C., 20 hours, SDA with 5% horse blood; read-out: Antimicrobial activity (MIC). As for the experimental part:
as §1, §2

Test [16] has as its system S. aureus MS15027. As to the kind of experiment: MIC, agar plate dilution method. As to conditions: Staphylococcus aureus. Here is the method: as §1, §2
The test system of test [17] is S. aureus MS15009/pMS98. As to the kind of experiment: MIC, agar plate dilution method. The following applies: Staphylococcus aureus, MS15009/PMS98, 20 h, read-out: Antimicrobial activity (MIC), 37° C., 20 hours, SDA with 5% horse blood. Here is the method: as §1, §2
The subject of test [18] is S. epidermidis ATCC14990. Kind of test: MIC, agar plate dilution method. The following applies: Staphylococcus epidermidis, ATCC14990, 20 h, read-out: Antimicrobial activity (MIC), 37° C., 20 hours, SDA with 5% horse blood. As for the experimental part:
as §1, §2

Test [19] has as its system S. aureus MS15026. As to the kind of experiment: MIC, agar plate dilution method. As to conditions: Staphylococcus aureus, 37° C., 20 hours, SDA with 5% horse blood, read-out: Antimicrobial activity (MIC). As for the experimental part: as §1, §2
Test [20] concerns test strains. Kind of test: Antimicrobial activity in vitro, test strains overall. Here is the method:
as §1, §2

Test [21] has as its system B. catarrhalis W-0500. As to the kind of experiment: MIC, agar plate dilution method. As to conditions: Moraxella catarrhalis, W0500, 20 h, read-out: Antimicrobial activity (MIC), 37° C., 20 hours, SDA with 5% horse blood. Here is the method: as §1, §2
[22] abbreviates: MS15027, 20 h, read-out: Antimicrobial activity (MIC), 37° C., 20 hours, SDA with 5% horse blood.

For `CCCC(=O)O[C@H]1[C@H](C)O[C@@H](O[C@H]2[C@H](N(C)C)[C@@H](O)[C@H](O[C@H]3[C@@H](CC=O)C[C@@H](C)[C@@H](O)/C=C/C=C/C[C@@H](C)OC(=O)C[C@@H](O)[C@@H]3OC)O[C@@H]2C)C[C@@]1(C)OC` [(33), 3"-O-methylleucomycin A5], the MIC in [1] was 0.05 µg/mL (≈ 0.0636 µM); in test [2] (37° C., 20 hours, SDA with 5% horse blood, read-out: Antimicrobial activity (MIC)), 1.56 µg/mL (≈ 1.98 µM); in test [3], 0.2 µg/mL (≈ 0.254 µM); in test [4] it was above 100 µg/mL; in [5], below 0.025 µg/mL; in [6], above 100 µg/mL. Further, the MIC in [7] is 0.78 µg/mL (≈ 0.992 µM); in test [8], below 0.025 µg/mL; in test [9], 0.1 µg/mL (≈ 0.127 µM); in test [10] it was 100 µg/mL (≈ 127 µM); in [11], above 100 µg/mL; in [12], 0.2 µg/mL (≈ 0.254 µM). Further, the MIC was 0.2 µg/mL (≈ 0.254 µM) in [13] (Haemophilus influenzae, 9334, 20 h, read-out: Antimicrobial activity (MIC), 37° C., 20 hours, SDA with 5% horse blood); below 0.025 µg/mL in test [14]; below 0.025 µg/mL in [15]; 0.2 µg/mL (≈ 0.254 µM) in [16] (setting [22]); 0.1 µg/mL (≈ 0.127 µM) in [17]; 0.2 µg/mL (≈ 0.254 µM) in [18]. For the same compound, in test [19], the MIC was above 100 µg/mL. Besides, in test [20] (vs clarithromycin), the “antimicrobial activities compared with clarithromycin” value is “completely comparable to those of clarithromycin”. The “antimicrobial activities in comparison with compound (2)” value in [20] (vs compound (2)) is listed as “generally improved antimicrobial activities”. The “antimicrobial activities in comparison with rokitamycin” value in [20] (vs rokitamycin) is “markedly excellent antimicrobial activities in vitro”.

For `CC[C@H]1OC(=O)[C@H](C)[C@@H](O[C@H]2C[C@@](C)(OC)[C@@H](O)[C@H](C)O2)[C@H](C)[C@@H](O[C@@H]2O[C@H](C)C[C@H](N(C)C)[C@H]2O)[C@](C)(OC)C[C@@H](C)C(=O)[C@H](C)[C@@H](O)[C@]1(C)O` [CAM, clarithromycin, reference compound], the “Antimicrobial activity (MIC)” value was 0.10 µg/mL in test [1]; 50 µg/mL in test [10] (20 hours); 50 µg/mL in [11] (20 hours); 0.10 µg/mL in [12] (37° C., 20 hours, SDA with 5% horse blood). In addition, the MIC in test [1] is 0.05 µg/mL (≈ 0.0668 µM); in [2] (20 h, read-out: Antimicrobial activity (MIC), 37° C., 20 hours, SDA with 5% horse blood), 6.25 µg/mL (≈ 8.36 µM); in test [4], above 100 µg/mL; in test [5], below 0.025 µg/mL; in test [6] it was above 100 µg/mL; in test [21], 0.2 µg/mL (≈ 0.267 µM). The MIC was 0.78 µg/mL (≈ 1.04 µM) in [7]; below 0.025 µg/mL in test [8]; 0.1 µg/mL (≈ 0.134 µM) in [9]; 100 µg/mL (≈ 134 µM) in test [10]; 100 µg/mL (≈ 134 µM) in test [11]; 0.2 µg/mL (≈ 0.267 µM) in test [12]. The MIC in [13] (Haemophilus influenzae, 9334, 37° C., 20 hours, SDA with 5% horse blood, read-out: Antimicrobial activity (MIC)) was 1.56 µg/mL (≈ 2.09 µM); in test [14], below 0.025 µg/mL; in [15] it was below 0.025 µg/mL; in [16] (setting [22]), above 100 µg/mL; in test [16] (MS15027, 37° C., 20 hours, SDA with 5% horse blood, read-out: Antimicrobial activity (MIC)) it was 1.56 µg/mL (≈ 2.09 µM); in [17] it was above 100 µg/mL. The MIC in [18] is 0.1 µg/mL (≈ 0.134 µM); in test [19] it was above 100 µg/mL.
